Biological target: T1, BDDrFVIII (Homo sapiens, UniProt P00451)
T1 construct: Deletion of the B domain leads to a less heterogenic, genetically engineered rFVIII that corresponds to the shortest form of pdFVIII (e.g. ˜170 KDa)
T1 sequence (P00451 with tags, fused parts or gaps DEL765-1658): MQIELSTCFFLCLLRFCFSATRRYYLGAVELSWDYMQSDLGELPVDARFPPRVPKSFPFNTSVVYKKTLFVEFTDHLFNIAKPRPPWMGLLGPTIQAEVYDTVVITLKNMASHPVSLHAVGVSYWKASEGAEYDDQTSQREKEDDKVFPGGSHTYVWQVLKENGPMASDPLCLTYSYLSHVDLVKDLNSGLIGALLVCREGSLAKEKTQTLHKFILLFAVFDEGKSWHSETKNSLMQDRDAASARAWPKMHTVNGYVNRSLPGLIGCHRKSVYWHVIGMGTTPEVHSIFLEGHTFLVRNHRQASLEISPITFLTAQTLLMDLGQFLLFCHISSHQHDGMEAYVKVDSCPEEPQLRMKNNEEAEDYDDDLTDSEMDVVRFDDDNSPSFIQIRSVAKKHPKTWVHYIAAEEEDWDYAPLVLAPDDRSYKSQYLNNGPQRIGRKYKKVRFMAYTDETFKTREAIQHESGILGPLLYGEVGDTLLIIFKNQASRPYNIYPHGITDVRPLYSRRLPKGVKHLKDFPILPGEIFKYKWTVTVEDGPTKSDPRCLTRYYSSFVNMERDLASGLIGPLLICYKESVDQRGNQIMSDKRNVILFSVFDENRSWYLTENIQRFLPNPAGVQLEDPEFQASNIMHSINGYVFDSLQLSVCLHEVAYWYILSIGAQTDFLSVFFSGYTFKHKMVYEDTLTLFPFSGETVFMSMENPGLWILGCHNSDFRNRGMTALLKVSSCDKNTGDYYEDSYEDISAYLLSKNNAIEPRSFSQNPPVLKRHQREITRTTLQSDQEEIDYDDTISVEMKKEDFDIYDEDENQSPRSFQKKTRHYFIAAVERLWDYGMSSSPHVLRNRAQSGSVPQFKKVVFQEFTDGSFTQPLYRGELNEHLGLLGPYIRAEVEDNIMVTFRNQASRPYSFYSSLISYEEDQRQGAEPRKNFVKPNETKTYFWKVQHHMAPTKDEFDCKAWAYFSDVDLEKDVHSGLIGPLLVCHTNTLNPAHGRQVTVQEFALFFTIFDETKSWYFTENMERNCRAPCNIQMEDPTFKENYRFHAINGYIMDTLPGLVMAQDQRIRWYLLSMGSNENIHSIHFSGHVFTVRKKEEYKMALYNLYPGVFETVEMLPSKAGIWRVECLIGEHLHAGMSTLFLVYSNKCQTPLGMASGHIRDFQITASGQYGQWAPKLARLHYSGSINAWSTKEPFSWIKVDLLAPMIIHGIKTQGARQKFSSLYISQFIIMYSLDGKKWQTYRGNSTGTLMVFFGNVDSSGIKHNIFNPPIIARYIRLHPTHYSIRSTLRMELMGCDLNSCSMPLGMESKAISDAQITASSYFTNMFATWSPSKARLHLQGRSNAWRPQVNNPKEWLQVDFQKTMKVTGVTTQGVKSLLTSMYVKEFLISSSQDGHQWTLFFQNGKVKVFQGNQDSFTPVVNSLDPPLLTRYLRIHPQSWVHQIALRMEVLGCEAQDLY
Assay: Dissociation constant of lipid head group - BDDrFVIII interaction by intrinsic fluorescence
Type: binding
Details: excitation 285 nm, emission 330 nm, protein 3 ug/mL
Experimental: This examples describes the preparation of PS containing liposomes that were used for comparison with the PI containing lipidic structures in other Examples. BDDrFVIII was mixed with solution containing different concentration of O-phospho-L-serine (OPLS) or phosphocholine in such a way that the final protein concentration is maintained constant at 3 ug/mL. The OPLS or phosphocholine concentration vared between 0 and 100 uM. Each mixture is incubated for 5 minutes before subjecting to further analysis.
The intrinsic fluorescent of BDDrFVIII in the presence of increasing concentration of phospholipids head group was measured with a Quanta Master PTI instrument. The excitation was set to 285 nm and the emission was recorded at peak maximum (e.g. 330 nm). The normalized fluorescence (F/F0) data was plotted vs. [lipid] and used for the determination of the dissociation constant for lipid head group—BDDrFVIII interaction.

Kd | SMILES
70.2 µM | N[C@@H](COP(=O)(O)O)C(=O)O [OPLS, O-phospho-L-serine]
24.2 µM | C[N+](C)(C)CCOP(=O)([O-])O [phophocholine, phosphocholine]
